Measurements from ChEMBL document CHEMBL4138146, “A Schmidt rearrangement-mediated synthesis of novel tetrahydro-benzo[1,4]diazepin-5-ones as potential anticancer and antiprotozoal agents” (Eur J Med Chem, 2017).

Assays:
Type in all cases: functional
EKVX = experiment: Growth inhibition of human EKVX cells assessed as cell growth at 10^-8 M incubated for 48 hrs by sulforhodamine B assay relative to control; settings: read-out: Activity
HOP-62 [1] = experiment: Growth inhibition of human HOP62 cells assessed as cell growth at 10^-8 M incubated for 48 hrs by sulforhodamine B assay relative to control; settings: HOP-62, 48 h, read-out: Activity
HOP-92 = experiment: Growth inhibition of human HOP92 cells assessed as cell growth at 10^-7 M incubated for 48 hrs by sulforhodamine B assay relative to control; settings: HOP-92, 48 h, read-out: Activity
NCI-H322M [2] = experiment: Growth inhibition of human NCI-H322M cells assessed as cell growth at 10^-7 M incubated for 48 hrs by sulforhodamine B assay relative to control; settings: read-out: Activity
HCT-15 [3] = experiment: Growth inhibition of human HCT15 cells assessed as cell growth at 10^-7 M incubated for 48 hrs by sulforhodamine B assay relative to control; settings: HCT-15, 48 h, read-out: Activity
SF-539 [4] = experiment: Growth inhibition of human SF539 cells assessed as cell growth at 10^-7 M incubated for 48 hrs by sulforhodamine B assay relative to control; settings: SF-539, 48 h, read-out: Activity
SK-MEL-5 = experiment: Growth inhibition of human SK-MEL-5 cells assessed as cell growth at 10^-7 M incubated for 48 hrs by sulforhodamine B assay relative to control; settings: SK-MEL-5, 48 h, read-out: Activity
UO-31 = experiment: Growth inhibition of human UO31 cells assessed as cell growth at 10^-7 M incubated for 48 hrs by sulforhodamine B assay relative to control; settings: UO-31, 48 h, read-out: Activity
SW-620 = experiment: Growth inhibition of human SW620 cells assessed as cell growth at 10^-6 M incubated for 48 hrs by sulforhodamine B assay relative to control; settings: SW-620, 48 h, read-out: Activity
SF-539 [5] = experiment: Growth inhibition of human SF539 cells assessed as cell growth at 10^-6 M incubated for 48 hrs by sulforhodamine B assay relative to control; settings: SF-539, 48 h, read-out: Activity
U-251 = experiment: Growth inhibition of human U251 cells assessed as cell growth at 10^-6 M incubated for 48 hrs by sulforhodamine B assay relative to control; settings: U-251, 48 h, read-out: Activity
RXF 393 [6] = experiment: Growth inhibition of human RXF393 cells assessed as cell growth at 10^-6 M incubated for 48 hrs by sulforhodamine B assay relative to control; settings: RXF 393, 48 h, read-out: Activity
TK-10 = experiment: Growth inhibition of human TK10 cells assessed as cell growth at 10^-6 M incubated for 48 hrs by sulforhodamine B assay relative to control; settings: TK-10, 48 h, read-out: Activity
MDA-MB-231 = experiment: Growth inhibition of human MDA-MB-231 cells assessed as cell growth at 10^-6 M incubated for 48 hrs by sulforhodamine B assay relative to control; settings: MDA-MB-231, 48 h, read-out: Activity
MOLT-4 = experiment: Growth inhibition of human MOLT4 cells assessed as cell growth at 10^-5 M incubated for 48 hrs by sulforhodamine B assay relative to control; settings: MOLT-4, 48 h, read-out: Activity
SR = experiment: Growth inhibition of human SR cells assessed as cell growth at 10^-5 M incubated for 48 hrs by sulforhodamine B assay relative to control; settings: read-out: Activity
A549 = experiment: Growth inhibition of human A549/ATCC cells assessed as cell growth at 10^-5 M incubated for 48 hrs by sulforhodamine B assay relative to control; settings: A549, 48 h, read-out: Activity
HOP-62 [7] = experiment: Growth inhibition of human HOP62 cells assessed as cell growth at 10^-5 M incubated for 48 hrs by sulforhodamine B assay relative to control; settings: HOP-62, 48 h, read-out: Activity
NCI-H522 = experiment: Growth inhibition of human NCI-H522 cells assessed as cell growth at 10^-5 M incubated for 48 hrs by sulforhodamine B assay relative to control; settings: NCI-H522, 48 h, read-out: Activity
SK-MEL-2 = experiment: Growth inhibition of human SK-MEL-2 cells assessed as cell growth at 10^-5 M incubated for 48 hrs by sulforhodamine B assay relative to control; settings: SK-MEL-2, 48 h, read-out: Activity
OVCAR-5 [8] = experiment: Growth inhibition of human OVCAR5 cells assessed as cell growth at 10^-5 M incubated for 48 hrs by sulforhodamine B assay relative to control; settings: OVCAR-5, 48 h, read-out: Activity
NCI/ADR-RES = experiment: Growth inhibition of human NCI/ADR-RES cells assessed as cell growth at 10^-5 M incubated for 48 hrs by sulforhodamine B assay relative to control; settings: read-out: Activity
ACHN = experiment: Growth inhibition of human ACHN cells assessed as cell growth at 10^-5 M incubated for 48 hrs by sulforhodamine B assay relative to control; settings: read-out: Activity
Hs-578T = experiment: Growth inhibition of human Hs 578T cells assessed as cell growth at 10^-5 M incubated for 48 hrs by sulforhodamine B assay relative to control; settings: read-out: Activity
CCRF-CEM = experiment: Growth inhibition of human CCRF-CEM cells assessed as cell growth at 10^-4 M incubated for 48 hrs by sulforhodamine B assay relative to control; settings: read-out: Activity
NCI-H322M [9] = experiment: Growth inhibition of human NCI-H322M cells assessed as cell growth at 10^-4 M incubated for 48 hrs by sulforhodamine B assay relative to control; settings: read-out: Activity
HCC 2998 = experiment: Growth inhibition of human HCC2998 cells assessed as cell growth at 10^-4 M incubated for 48 hrs by sulforhodamine B assay relative to control; settings: HCC 2998, 48 h, read-out: Activity
HCT-15 [10] = experiment: Growth inhibition of human HCT15 cells assessed as cell growth at 10^-4 M incubated for 48 hrs by sulforhodamine B assay relative to control; settings: HCT-15, 48 h, read-out: Activity
UACC-257 = experiment: Growth inhibition of human UACC257 cells assessed as cell growth at 10^-4 M incubated for 48 hrs by sulforhodamine B assay relative to control; settings: UACC-257, 48 h, read-out: Activity
OVCAR-3 = experiment: Growth inhibition of human OVCAR3 cells assessed as cell growth at 10^-4 M incubated for 48 hrs by sulforhodamine B assay relative to control; settings: OVCAR-3, 48 h, read-out: Activity
OVCAR-4 = experiment: Growth inhibition of human OVCAR4 cells assessed as cell growth at 10^-4 M incubated for 48 hrs by sulforhodamine B assay relative to control; settings: OVCAR-4, 48 h, read-out: Activity
OVCAR-5 [11] = experiment: Growth inhibition of human OVCAR5 cells assessed as cell growth at 10^-4 M incubated for 48 hrs by sulforhodamine B assay relative to control; settings: OVCAR-5, 48 h, read-out: Activity
786-0 = experiment: Growth inhibition of human 786-0 cells assessed as cell growth at 10^-4 M incubated for 48 hrs by sulforhodamine B assay relative to control; settings: 786-0, 48 h, read-out: Activity
RXF 393 [12] = experiment: Growth inhibition of human RXF393 cells assessed as cell growth at 10^-4 M incubated for 48 hrs by sulforhodamine B assay relative to control; settings: RXF 393, 48 h, read-out: Activity

Which results are given for CCCCOc1nc2ccccc2cc1C1CNC(=O)c2ccccc2N1 (centres undefined)?
growth at 0.01 µM (EKVX): 90%; growth at 0.01 µM (HOP-62 [1]): 93%; growth at 0.1 µM (HOP-92): 80%; growth at 0.1 µM (NCI-H322M [2]): 95%; growth at 0.1 µM (HCT-15 [3]): 98%; growth at 0.1 µM (SF-539 [4]): 93%; growth at 0.1 µM (SK-MEL-5): 100%; growth at 0.1 µM (UO-31): 86%; growth at 1 µM (SW-620): 66%; growth at 1 µM (SF-539 [5]): 85%; growth at 1 µM (U-251): 85%; growth at 1 µM (RXF 393 [6]): 80%; growth at 1 µM (TK-10): 92%; growth at 1 µM (MDA-MB-231): 85%; growth at 10 µM (MOLT-4): 6%; growth at 10 µM (SR): 1%; growth at 10 µM (A549): 14%; growth at 10 µM (HOP-62 [7]): 19%; growth at 10 µM (NCI-H522): 25%; growth at 10 µM (SK-MEL-2): 33%; growth at 10 µM (OVCAR-5 [8]): 38%; growth at 10 µM (NCI/ADR-RES): -15%; growth at 10 µM (ACHN): 22%; growth at 10 µM (Hs-578T): 28%; growth at 100 µM (CCRF-CEM): -17%; growth at 100 µM (NCI-H322M [9]): -16%; growth at 100 µM (HCC 2998): -20%; growth at 100 µM (HCT-15 [10]): -74%; growth at 100 µM (UACC-257): 6%; growth at 100 µM (OVCAR-3): -92%; growth at 100 µM (OVCAR-4): -37%; growth at 100 µM (OVCAR-5 [11]): -24%; growth at 100 µM (786-0): -76%; growth at 100 µM (RXF 393 [12]): -58%
